Tests used:
dd male mice = assay: Acute Toxicity Test (minimum lethal dose, MLD); format: in vivo; conditions: dd male mice, mortality after 7 days
Method: A test compound was given to dd male mice weighing 20±1 g (3 mice per group) per os. (p.o.; 300 mg/kg) or intraperitoneally (i.p.; 100 mg/kg). The mortality after 7 days from the administration was considered to determine the minimum lethal dose (MLD).

[1] = molecular target: T1, thromboxane synthase (TXA2 synthase), bovine platelet microsome (Bos taurus, UniProt Q2KIG5); assay: Test on Inhibition of TXA2 Biosynthesis (bovine platelet microsome, TXB2 by radioimmunoassay); format: biochemical; conditions: for IC50: bovine platelet microsome, pH 7.4, prostaglandin H2 substrate
T1 construct: bovine platelet microsome; from tissue; host or cells: bovine platelets (microsome)
T1 sequence (Q2KIG5 1-533): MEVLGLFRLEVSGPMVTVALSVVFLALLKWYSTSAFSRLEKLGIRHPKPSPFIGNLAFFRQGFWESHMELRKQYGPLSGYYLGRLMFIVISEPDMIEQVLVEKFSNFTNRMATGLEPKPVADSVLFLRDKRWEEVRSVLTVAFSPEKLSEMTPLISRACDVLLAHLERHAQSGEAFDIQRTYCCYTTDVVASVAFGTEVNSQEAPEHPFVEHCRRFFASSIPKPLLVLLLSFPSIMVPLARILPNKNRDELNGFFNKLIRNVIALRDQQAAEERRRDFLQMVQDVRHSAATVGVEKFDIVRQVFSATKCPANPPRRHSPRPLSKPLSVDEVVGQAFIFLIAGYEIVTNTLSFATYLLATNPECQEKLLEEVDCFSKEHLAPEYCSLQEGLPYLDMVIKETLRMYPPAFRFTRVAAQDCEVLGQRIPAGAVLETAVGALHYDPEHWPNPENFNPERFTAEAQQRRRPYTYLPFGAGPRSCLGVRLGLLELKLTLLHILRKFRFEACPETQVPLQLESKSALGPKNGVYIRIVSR
Method: A mixture of 70 μl of bovine platelet microsome [protein: 40 μg; 100 mM tris-HCl buffer (pH=7.4)] and 10 μl of a test compound solution (100 mM tris-HCl buffer containing 10% methanol) was allowed to stand at 0° C. for 5 minutes, and 20 μl of a prostaglandin H2 solution (100 mM tris-HCl buffer supplemented with acetone containing 0.1 nmol of prostaglandin H2) was added thereto as a substrate.
The amount of thromboxane B2 (TXB2) (stable degradation product of TXA2) produced in the system was determined by radioimmunoassay [F. A. Fitzpatrick et al., Methods in Enzymology, Vol. 86, p.286 (1982)].
Inhibition of TXB2 synthesis was evaluated by IC50 (50% inhibitory concentration) or percent inhibition as calculated from equation described below, and the results obtained are shown in Table 1. [formula]

[2] = system: silver nitrate-induced arteriothromboembolia in male Wistar-Shizuoka rats; assay: Test on Inhibition of Silver Nitrate-Induced Arteriothromboembolia in Rats; format: in vivo; conditions: for Number of Obstruction Case/Number of Experiments: control 23/26; for Percent Obstruction: control 88%
Text: Male Wistar -Shizuoka rats weighing 270±20 g were anesthetized with urethane (1.5 g/kg) intraperitoneally. Each animal was fixed on its back, and a venous cannula and an arterial cannula were inserted into the left carotid vein and the left femoral artery, respectively. An abdominal incision was made, the intestinal tract was put aside so that the descending abdominal aorta could be seen, the surrounding connective tissues were removed, the descending aorta was detached to a length of about 1 cm, and the detached descending aorta was put on a globe of 8 cm in diameter. A solvent (0.1 ml; physiological saline containing 0.05N sodium hydroxide) or a drug solution (0.1 ml) in the solvent was injected via the cannulated carotid vein per 100 g of body weight. Three minutes later, a 30% silver nitrate aqueous solution was dropped on the detached descending abdominal aorta. Five minutes later, the globe was removed, and the affected site was washed three times with physiological saline to stop the reaction. After the elapse of 30 minutes from the stopping of the reaction, the blood pressure of the femoral artery was measured, and the pressure fall was taken as an indication of obstruction of the descending arterial. Significance of the difference in degree of the obstruction between the control group (only the solvent was administered) and the test group was assayed by X^2 -assay.

| SMILES | Acute Toxicity (MLD) ip (dd male mice) | Acute Toxicity (MLD) po (dd male mice) | IC50 [1] | other results |
| --- | --- | --- | --- | --- |
| O=C(O)CCCCCC1c2ccccc2NC(=O)c2cnccc21 (stereo not drawn) [Compound I-21, 5-(5-Carboxypentyl)-5,11-dihydropyrido[3,4-c][1]benzazepin-11(10H)-one] | > 100 mg/kg | > 300 mg/kg | – | inhibition at 10 µM [1]: 47% |
| O=C(O)CCCC/C=C1\c2cnccc2NC(=O)c2ccccc21 [Compound I-14Z, (Z)-11-(5-Carboxypentylidene)-6,11-dihydropyrido[4,3-c][2]benzazepin-6(5H)-one] | > 100 mg/kg | > 300 mg/kg | 451 nM | – |
| COc1ccc2c(c1)C(=CCCCCC(=O)O)c1cnccc1C(=O)N2C [Compound I-3, 11-(5-Carboxypentylidene)-9-methoxy-6-methyl-5,11-dihydropyrido-[4,3-c][1]benzazepin-5(6H)-one] | > 100 mg/kg | > 300 mg/kg | 400 nM | – |
| CSC1=Nc2ccccc2C(=CCCCCC(=O)O)c2cnccc21 [Compound I-6, 11-(5-Carboxypentylidene)-5-thiomethyl-11(H)-pyrido-[4,3-c][1]benzazpin] | > 100 mg/kg | > 300 mg/kg | 5 nM | – |
| O=C(O)CCCC/C=C1\c2ccccc2NC(=O)c2ccncc21 [Compound I-10E, (E)-11-(5-Carboxypentylidene)-5,11-dihydropyrido[4,3-c][1]benzazepin-5(6H)-one] | > 100 mg/kg | > 300 mg/kg | 21 nM | – |
| O=C(O)CCCC/C=C1/c2cnccc2C(=O)N(Cc2ccccc2)c2ccccc21 [Compound I-11E, (E)-6-Benzyl-11-(5-carboxypentylidene)-5,11-dihydropyrido[4,3-c][1]benzazepin-5(6H)-one] | > 100 mg/kg | > 300 mg/kg | 8.3 nM | – |
| CN1C(=O)c2cnccc2/C(=C/CCCCC(=O)O)c2ccccc21 [Compound I-20Z, (Z)-5-(5-carboxypentylidene)-10-methyl-5,11-dihydropyrido[3,4-c][1]benzazepin-11(10H)-one] | > 100 mg/kg | > 300 mg/kg | – | inhibition at 10 µM [1]: -23% |
| COC1=Nc2ccncc2/C(=C\CCCCC(=O)O)c2ccccc21 [Compound I-13Z, (Z)-11-(5-carboxypentylidene)-6-methoxy-11H-pyrido[4,3-c][2]benzazepin] | > 100 mg/kg | > 300 mg/kg | 3.5 nM | – |
| C/C=C/C1=Cc2ccccc2/C(=C/CCCCC(=O)O)c2cnccc21 [Compound I-7, (Z)-11-(5-Carboxypentylidene)-5-[(E)-1-propen-1-yl]-(H)-pyrido[3,4-b]benzcycloheptene] | > 100 mg/kg | > 300 mg/kg | 21 nM | – |
| O=C(O)CCCC=C1c2ccccc2NC(=O)c2ccncc21 [Compound I-4, 11-(4-Carboxybutylidene)-5,11-dihydropyrido[4,3-c][1]-benzazepin-5(6H)-one] | > 100 mg/kg | > 300 mg/kg | 250 nM | – |
| CN1C(=O)c2ccncc2/C(=C/CCCCC(=O)O)c2ccccc21 [Compound I-12E, (E)-11-(5-Carboxypentylidene)-6-methyl-5,11-dihydropyrido[4,3-c][1]benzazepin-5(6H)-one] | > 100 mg/kg | > 300 mg/kg | 20 nM | – |
| O=C(O)CCCCC=C1c2cnccc2CNc2ccccc21 [Compound I-15, 11-(5-Carboxypentylidene)-11H-5,6-dihydropyrido[4,3-c][1]benzazepin] | > 100 mg/kg | > 300 mg/kg | 22 nM | – |
| O=C(O)CCCC/C=C1\c2cnccc2C(=O)N(Cc2ccccc2)c2ccccc21 [Compound I-11Z, (Z)-6-benzyl-11-(5-carboxypentylidene)-5,11-dihydropyrido[4,3-c][1]benzazepin-5(6H)-one] | > 100 mg/kg | > 300 mg/kg | 41 nM | – |
| O=C(O)CCCCC=C1c2cc(Br)ccc2NC(=O)c2ccncc21 [Compound I-1, 9-Bromo-11-(5-carboxypentylidene)-5,11-dihydropyrido-[4,3-c][1]benzazepin-5(6H)-one] | > 100 mg/kg | > 300 mg/kg | 32 nM | – |
| CN1C(=O)c2cnccc2/C(=C\CCCCC(=O)O)c2ccccc21 [Compound I-20E, (E)-5-(5-Carboxypentylidene)-10-methyl-5,11-dihydropyrido[3,4-c][1]benzazepin-11(10H)-one] | > 100 mg/kg | > 300 mg/kg | – | inhibition at 10 µM [1]: 10% |
| O=C(O)CCCC/C=C1\c2ccccc2NC(=O)c2cnccc21 [Compound I-19Z, (Z)-5-(5-carboxypentylidene)-5,11-dihydropyrido[3,4-c][1]benzazepin-11(10H)-one] | > 100 mg/kg | > 300 mg/kg | – | inhibition at 10 µM [1]: 8% |
| O=C(O)CCCC/C=C1/c2cnccc2NC(=O)c2ccccc21 [Compound I-14E, (E)-11-(5-Carboxypentylidene)-6,11-dihydropyrido[4,3-c][2]benzazepin-6(5H)-one] | > 100 mg/kg | > 300 mg/kg | 22 nM | – |
| C/C(=C\c1ccc(Cc2cccnc2)cc1)C(=O)O [OKY-1581, reference compound] | – | – | – | Number of Obstruction Case/Number of Experiments ([2]; 0.3 mg/kg i.v.): 5/5; Percent Obstruction ([2]; 0.3 mg/kg i.v.): 100%; Number of Obstruction Case/Number of Experiments ([2]; 1.0 mg/kg i.v.): 4/6; Percent Obstruction ([2]; 1.0 mg/kg i.v.): 67%; Number of Obstruction Case/Number of Experiments ([2]; 3.0 mg/kg i.v.): 0/3; Percent Obstruction ([2]; 3.0 mg/kg i.v.): 0% |
| Cc1cccc2c1NC(=O)c1ccncc1C2=CCCCCC(=O)O [Compound I-2, 11-(5-Carboxypentylidene)-7-methyl-5,11-dihydropyrido-[4,3-c][1]benzazepin-5(6H)-one] | > 100 mg/kg | > 300 mg/kg | – | inhibition at 0.1 µM ([1]; 0.1 μM (footnote *), read-out: Inhibition of TXA2 Biosynthesis, Percent inhibition at 0.1 μM): 41% |
| O=C(O)CCCCCCC=C1c2ccccc2NC(=O)c2ccncc21 [Compound I-5, 11-(7-Carboxyheptylidene)-5,11-dihydropyrido[4,3-c][1]-benzazepin-5(6H)-one] | > 100 mg/kg | > 300 mg/kg | 130 nM | – |
| CSC1=Nc2ccccc2C(=CCCCCC(=O)O)c2ccncc21 [Compound I-18, 5-(5-Carboxypentylidene)-11-thiomethyl-5H-pyrido[3,4-c][1]benzazepin] | > 100 mg/kg | > 300 mg/kg | 100 nM | – |
| CSC1Nc2ccccc2C(=CCCCCC(=O)O)c2ccncc21 (stereo not drawn) [Compound I-22, 5-(5-Carboxypentylidene)-11-thiomethyl-5H-10,11-dihydropyrido[3,4-c][1]benzazepin] | > 100 mg/kg | > 300 mg/kg | – | inhibition at 10 µM [1]: 27% |
| O=C(O)CCCC/C=C(\c1ccccc1)c1cccnc1 [CV-4151, reference compound] | – | – | – | Number of Obstruction Case/Number of Experiments ([2]; 0.3 mg/kg i.v.): 4/6; Percent Obstruction ([2]; 0.3 mg/kg i.v.): 67%; Number of Obstruction Case/Number of Experiments ([2]; 1.0 mg/kg i.v.): 4/8; Percent Obstruction ([2]; 1.0 mg/kg i.v.): 50%; Number of Obstruction Case/Number of Experiments ([2]; 3.0 mg/kg i.v.): 1/5; Percent Obstruction ([2]; 3.0 mg/kg i.v.): 20% |
